Assay results taken from PubChem BioAssay AID1963871 (Molecular Pharmacology Branch, DTP, NCI, 2024).

Test system: KRAS-mutant PDC multicell tumor spheroid viability
Test: Anticancer human tumor 521955-158-R2-J5-PDC patient-derived pancreatic carcinoma cell line growth inhibition [KRAS2]
Conditions: for IC50: curve of first compound; for viability, T/C: stronger effect = lower value
In short: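 Combination screen of spheroid viability in tumor-cell co-cultures with endothelial (HUVEC) and mesenchymal stem cell stroma. Each agent was tested in half-log dilutions, topping at clinical Cmax or at 10 microM without a known Cmax.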

[1] = second compound 0.1 µM, first compound 0.0316 µM
[2] = second compound 0.1 µM, first compound 0.1 µM
[3] = second compound 0.1 µM, first compound 0.316 µM
[4] = second compound 0.1 µM, first compound 1 µM
[5] = second compound 0.1 µM, first compound 3.16 µM
[6] = second compound 0.1 µM, first compound 10 µM
[7] = second compound 0.316 µM, first compound 0.0316 µM
[8] = second compound 0.316 µM, first compound 0.1 µM
[9] = second compound 0.316 µM, first compound 0.316 µM
[10] = second compound 0.316 µM, first compound 1 µM
[11] = second compound 0.316 µM, first compound 3.16 µM
[12] = second compound 0.316 µM, first compound 10 µM
[13] = second compound 1 µM, first compound 0.0316 µM
[14] = second compound 1 µM, first compound 0.1 µM
[15] = second compound 1 µM, first compound 0.316 µM
[16] = second compound 1 µM, first compound 1 µM
[17] = second compound 1 µM, first compound 3.16 µM
[18] = second compound 1 µM, first compound 10 µM
[19] = second compound 3.16 µM, first compound 0.0316 µM
[20] = second compound 3.16 µM, first compound 0.1 µM
[21] = second compound 3.16 µM, first compound 0.316 µM
[22] = second compound 3.16 µM, first compound 1 µM
[23] = second compound 3.16 µM, first compound 3.16 µM
[24] = second compound 3.16 µM, first compound 10 µM
[25] = second compound 10 µM, first compound 0.0316 µM
[26] = second compound 10 µM, first compound 0.1 µM
[27] = second compound 10 µM, first compound 0.316 µM
[28] = second compound 10 µM, first compound 1 µM
[29] = second compound 10 µM, first compound 3.16 µM
[30] = second compound 10 µM, first compound 10 µM
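Note: viability read after seven days of drug exposure.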

| Structure (SMILES) | IC50 (second compound 0.1 µM) [nM] | IC50 (second compound 0.316 µM) [nM] | IC50 (second compound 1 µM) [nM] | IC50 (second compound 3.16 µM) [nM] | viability, T/C [1] [%] | viability, T/C [2] [%] | viability, T/C [3] [%] | viability, T/C [4] [%] | viability, T/C [5] [%] | viability, T/C [7] [%] | viability, T/C [8] [%] | viability, T/C [9] [%] | viability, T/C [10] [%] | viability, T/C [11] [%] | viability, T/C [13] [%] | viability, T/C [14] [%] | viability, T/C [15] [%] | viability, T/C [16] [%] | viability, T/C [17] [%] | viability, T/C [19] [%] | further results |
| --- | --- | --- | --- | --- | --- | --- | --- | --- | --- | --- | --- | --- | --- | --- | --- | --- | --- | --- | --- | --- | --- |
| CC1OCC2(CCN(c3cnc(Sc4ccnc(N)c4Cl)c(N)n3)CC2)C1N (stereo not given) + C=CC(=O)N1CCN(c2nc(=O)n(-c3c(C)ccnc3C(C)C)c3nc(-c4c(O)cccc4F)c(F)cc23)C(C)C1 | > 10000 | > 10000 | > 10000 | > 10000 | 89.8 | 96.4 | 76.3 | 72 | 97.5 | 89.4 | 81.5 | 76.2 | 75.7 | 71.6 | 101 | 88.4 | 91.8 | 87.4 | 71.7 | 92.1 | IC50 (second compound 10 µM): > 10000 nM; viability, T/C [6]: 67.6%; viability, T/C [12]: 63.4%; viability, T/C [18]: 66.4%; viability, T/C [20]: 87.5%; viability, T/C [21]: 72.3%; viability, T/C [22]: 79.1%; viability, T/C [23]: 62%; viability, T/C [24]: 64.7%; viability, T/C [25]: 66.2%; viability, T/C [26]: 59.3%; viability, T/C [27]: 66.2%; viability, T/C [28]: 61.3%; viability, T/C [29]: 54.6%; viability, T/C [30]: 57.8% |
| Cn1nccc1Nc1nccc(-c2cc3c(s2)C(C)(C)N(CCN2CCOCC2)C3=O)n1 + C=CC(=O)N1CCN(c2nc(=O)n(-c3c(C)ccnc3C(C)C)c3nc(-c4c(O)cccc4F)c(F)cc23)C(C)C1 | 1610 | 2020 | 2910 | 2960 | 98.9 | 94.9 | 76.9 | 59.4 | 37.9 | 125 | 107 | 76.9 | 58.5 | 47 | 117 | 110 | 85.3 | 67.5 | 42.7 | 110 | IC50 (second compound 10 µM): 1010 nM; viability, T/C [6]: 24.2%; viability, T/C [12]: 36.7%; viability, T/C [18]: 47.5%; viability, T/C [20]: 116%; viability, T/C [21]: 84.6%; viability, T/C [22]: 64.2%; viability, T/C [23]: 54.1%; viability, T/C [24]: 40.5%; viability, T/C [25]: 78.5%; viability, T/C [26]: 78.1%; viability, T/C [27]: 61.3%; viability, T/C [28]: 52.8%; viability, T/C [29]: 41.1%; viability, T/C [30]: 43.1% |
| CC(=O)OC12COC1CC(O)C1(C)C(=O)C(O)C3=C(C)C(OC(=O)C(O)C(NC(=O)OC(C)(C)C)c4ccccc4)CC(O)(C(OC(=O)c4ccccc4)C21)C3(C)C (stereo not given) + C=CC(=O)N1CCN(c2nc(OCC3CCCN3C)nc3c2CCN(c2cccc4cccc(C)c24)C3)CC1CC#N | < 10 | < 10 | < 10 | < 10 | 16.3 | 12.6 | 12.7 | 15.1 | 18.3 | 10 | 9.97 | 11.8 | 17.3 | 19.8 | 13.2 | 10 | 9.11 | 11.5 | 14.3 | 15.5 | IC50 (second compound 0.0316 µM): < 10 nM; viability, T/C (second compound 0.0316 µM, first compound 0.01 µM): 21.3%; viability, T/C (second compound 0.0316 µM, first compound 0.0316 µM): 15.8%; viability, T/C (second compound 0.0316 µM, first compound 0.1 µM): 12.7%; viability, T/C (second compound 0.0316 µM, first compound 0.316 µM): 15.2%; viability, T/C (second compound 0.0316 µM, first compound 1 µM): 15.4%; viability, T/C (second compound 0.0316 µM, first compound 3.16 µM): 20.6%; viability, T/C (second compound 0.1 µM, first compound 0.01 µM): 19.4%; viability, T/C (second compound 0.316 µM, first compound 0.01 µM): 19.3%; viability, T/C (second compound 1 µM, first compound 0.01 µM): 18.9%; viability, T/C (second compound 3.16 µM, first compound 0.01 µM): 22.1%; viability, T/C [20]: 15.3%; viability, T/C [21]: 15.8%; viability, T/C [22]: 16.9%; viability, T/C [23]: 21.8% |
